# According to US11083735B2, “Methods for treating sleep disorders, sleep disturbances, and related symptoms using aminosterol compositions” (Enterin, Inc., priority 2017, dated 2021):
# Where “and” joins values, the source holds several entries; their conditions need not be identical. Equal values may be shown once. Read-outs that look alike come from different tables or passages of the source.
# Columns and labels:
# [1] = tested on: patients with PD and constipation; conditions: in vivo
# Experimental: In Stage 2, 34 patients were evaluated. […] This dose was then maintained (“fixed dose”) for an additional 3-5 days. After the “fixed dose”, these patients were randomly assigned to either continued treatment at that dose or to a matching placebo, for an additional 4-6 days prior to a 2-week wash-out.
# A second cohort of 19 patients received squalamine (ENT-01) escalating from 100 mg/day to a maximum of 250 mg/day without subsequent randomization to squalamine (ENT-01) or placebo. Criteria for dose selection and efficacy were identical to those used in the previous cohort.
# (§1) Adverse events were coded using the current version of MedDRA. Severity of AEs were assessed by investigators according to CTCAE (v4.03): Grade 1 is labeled as Mild, Grade 2 as Moderate, and Grade 3 and above as Severe. […] The number (percentage) of subjects who experienced an AE during escalation and fixed dosing periods were summarized by dose level and overall for each stage. The denominator for calculating the percentages were based on the number of subjects ever exposed to each dose and overall.
# [2] = tested on: patients with PD and constipation; conditions: in vivo; remark: listed apart in the source
# Experimental: In Stage 1, ten (10) PD patients received a single escalating dose of squalamine (ENT-01) every 3-7 days beginning at 25 mg and continuing up to 200 mg or the limit of tolerability, followed by 2-weeks of wash-out. Duration of this part of the trial was 22-57 days. The 10 subjects in the sentinel group were assigned to Cohort 1 and participated in 8 single dosing periods. Tolerability limits included diarrhea or vomiting.
# Each dose period was staggered, so that subjects 1-2 were administered a single dose of the drug at the lowest dose of 25 mg. Once 24 hours have elapsed, and provided there are no safety concerns, the patient was sent home and brought back on day 4-8 for the next dose. During the days the subjects are home, they completed the daily diaries and e-mailed them to the study coordinators. Subjects 3-10 were dosed after the first 2 subjects have been observed for 72 hours, i.e. on Day 4. Subjects 1-2 were also brought back on Day 4-8 and given a single dose of 50 mg. Once another 24 hours have elapsed and provided there are no safety concerns, the patients were all sent home and instructed to return on Day 7 for the next dosing level. This single dosing regimen was continued until each subject was given a single dose of 200 mg or has reached a dose limiting toxicity (DLT). DLT was the dose which induces repeated vomiting, diarrhea, abdominal pain or symptomatic postural hypotension within 24 hours of dosing.
# as §1
# patients with PD = assay: Phase 2 trial Stage 2: sleep diary (total sleep time, arm or leg thrashing / RBD); format: in vivo, human
# Experimental: FIG. 18 is a chart of total sleep time in relation to squalamine dose. Total sleep time was obtained from the sleep diary by subtracting awake time during the night from total time spent in bed. Total sleep time per night was logged for each patient at baseline, each dosing period and at washout, and the means were determined. The light grey bar represents the baseline value for each cohort at a given dose level and the dark grey bar represents the value for the same cohort at the stated dose of squalamine (ENT-01; Kenterin™). The number of patients represented at each value are: Baseline, 33; 75 mg, 21; 100 mg, 28; 125 mg, 18; 150 mg, 15; 175 mg, 12; 200 mg, 7; 225 mg, 3; 250 mg, 2; washout, 33. P values were as follows: 75 mg, p=0.4; 100 mg, p=0.1; 125 mg, p=0.3; 150 mg, p=0.07; 175 mg, p=0.03; 200 mg, p=0.3; 225 mg, p=0.5; 250 mg, p=0.3; wash-out, p=0.04 (paired t test).
# The frequency of arm or leg thrashing reported in the sleep diary diminished progressively from 2.2 episodes/week at baseline to 0 at maximal dose.
# (5) Sleep Diary (participants completed a sleep diary on a daily basis throughout the study. The diaries included time into bed and estimated time to sleep as well as wake time and duration during the night.);
# Exploratory end-points, in addition to constipation, included for example, (i) depression assessed using the Beck Depression Inventory (BDI-II) (Steer et al. 2000) and Unified Parkinson's Disease Rating Scale (UPDRS); (ii) cognition assessed using the Mini Mental State Examination (MMSE) (Palsteia et al. 2018), Unified Parkinson's Disease Rating Scale (UPDRS), and Trail Making Test (TMT); (iii) sleep and REM-behavior disorder (RBD) using a daily sleep diary, I-Button Temperature Assessment, a REM sleep behavior disorder (RBD) questionnaire (RBDQ) (Stiasny-Kolster et al. 2007), and the UPDRS; (iv) hallucinations assessed using the PD hallucinations questionnaire (PDHQ) (Papapetropoulos et al. 2008), the UPDRS, and direct questioning; (v) fatigue using the Parkinson's Disease Fatigue Scale (PFS-16) and the UPDRS; (vi) motor functions using the UPDRS; and (vii) non-motor functions using the UPDRS.
# [3] = Pharmacokinetics of orally administered squalamine (ENT-01) in Stage 2; format: in vivo, human; conditions: Stage 2, oral; for Cmax: squalamine ion, mean
# Experimental: Pharmakokinetics: PK data were collected on the 10 patients enrolled in Stage 1 and 10 patients enrolled in Stage 2 to determine the extent of systemic absorption. In Stage 1, PK data were obtained at each visit, pre-medication, at 1, 2, 4, 8 and 24 hours (Table 14). In Stage 2, PK was measured on days 1 and 6 of the randomization period pre-medication, at 1, 2, 4 and 8 hours (Table 15).
# The mean Cmax, Tmax and T1/2 and AUC of the squalamine ion following squalamine (ENT-01) oral dosing for Stage 1 patients. The PK analyses are only approximate, as the lower limit of the validated concentration range was 10 ng/ml; most of the measured concentrations fell below that value. The mean Cmax, Tmax and T1/2 and AUC of the squalamine ion following squalamine (ENT-01) oral dosing for Stage 2 patients. The PK analyses are only approximate, as the lower limit of the validated concentration range was 0.5 ng/ml.
# [4] = tested on: patient with sleeping disorder; assay: Example 2: patient with sleeping disorder and constipation, oral squalamine, sleep diary and I-button; format: in vivo, human
# Experimental: The patient had very significant delay in sleep onset, fragmented sleep, thrashing of arms and legs (RBD) and daytime somnolence. On polysomnography, they had apneic spells up to 17 seconds in duration with an oxygen desaturation as low as 93%. The patient slept no more than 3-4 hours, awakened 3-4 times, and each awakening lasted 30-60 minutes. Medications included clonazepam and laxatives.
# Clonazepam and laxatives were discontinued and they were started on 100 mg of squalamine every other day at bedtime. This regimen had no effect on their sleep or constipation. […] They were then switched to 150 mg daily taken in the morning.
# The patient's skin temperature was also monitored for fluctuations at the wrist using a temperature sensor (I-button) mounted on a wrist-band. Skin temperature at the wrist increases from about 30° C. during the day to 36° C. at night in normal individuals. This diurnal variation of skin temperature correlates well with sleep-wake cycles. When it reaches 34° C., subjects fall asleep; during the night, if it falls below 34° C., subjects awaken. During the day, skin temperature is below 30° C. and subjects remain awake.
# Once the patient's Circadian rhythm was restored, the patient started sleeping better at night and stopped falling asleep during the day.
# isolated colons = assay: Isolated perfused colon, migrating muscular contractions (aged mouse; loperamide in young mouse)
# Text: Isolated colons were mounted in an apparatus that permits continuous perfusion through the lumen, and the monitoring of the velocity, frequency and pressure of migrating muscular contractions (MMCs). Similar to the experience in humans, aging in mice is associated with diminished colonic peristaltic activity.
# In humans, opiates markedly diminish GI motility and suppress fluid secretion causing constipation. […] When loperamide is introduced into the lumen of a young mouse colonic peristalsis is inhibited. When squalamine is added in presence of continued loperamide perfusion, the dysmotility is overridden.
# [5] = 150 mg daily taken in the morning
smiles,measurement,setting,value
"CC(C)[C@@H](CC[C@@H](C)[C@H]1CC[C@H]2[C@@H]3[C@H](O)C[C@H]4C[C@@H](NCCCNCCCCN)CC[C@]4(C)[C@H]3CC[C@]12C)OS(=O)(=O)O (single isomer, unassigned; ent-01) [ENT-01]","Eye infection, Moderate",[1],"0 n, %"
same,"Eye infection, Moderate",[2],"0 n, %"
same,increase of total sleep time,patients with PD; 250 mg vs baseline,18%
same,Total sleep time,"patients with PD; at 250 mg, baseline 7.1",8.4 h
same,improvement of arm or leg thrashing frequency,patients with PD; at maximal dose vs baseline,100%
same,frequency of arm or leg thrashing reported in the sleep diary,"patients with PD; at maximal dose, baseline 2.2",0 episodes/week
same,Total sleep time,patients with PD; beyond 125 mg,consistently higher than baseline
same,AUC0-8 hr,[3]; dose 75 mg,59.0 ng·h/mL
same,Tmax (Median Value),[3]; dose 75 mg,3.0 h
same,Cmax,[3]; dose 75 mg,10.0 ng/mL
same,AUC0-8 hr,[3]; dose 100 mg,70.3 ng·h/mL
same,Tmax (Median Value),[3]; dose 100 mg,1.0 h
same,Cmax,[3]; dose 100 mg,17.7 ng/mL
same,AUC0-8 hr,[3]; dose 175 mg,66.8 ng·h/mL
same,Tmax (Median Value),[3]; dose 175 mg,2.0 h
same,Cmax,[3]; dose 175 mg,11.8 ng/mL
CC(C)[C@@H](CC[C@@H](C)[C@H]1CC[C@H]2[C@@H]3[C@H](O)C[C@H]4C[C@@H](NCCCNCCCCN)CC[C@]4(C)[C@H]3CC[C@]12C)OS(=O)(=O)O [squalamine],effect on sleep or constipation,[4]; 100 mg every other day at bedtime,no effect
same,time to fall asleep (I-button),"[4]; 100 mg given at night, FIG. 8A",2.5 h
same,total sleep per night (I-button),"[4]; 100 mg given at night, FIG. 8A",3 h
same,Delay,"[4]; 125 mg switch, days 114-118",45 min
same,Fragments awake,"[4]; 125 mg switch, days 114-118",60 min
same,Total hrs sleep,"[4]; 125 mg switch, days 114-118",7.5 h and 6.5 h and 8.0 h
same,total hours of sleep (I-button),[4]; 150 mg,4 to 5 h
same,Total hrs sleep,"[4]; 150 mg daily am dose, Mean row covers all on-treatment days (pre mean 6.2)",6.0 h
same,Fragments awake,"[4]; 150 mg daily am dose, Mean row covers all on-treatment days (pre mean 90)",120 min
same,effect on sleep or constipation,[4]; 150 mg daily at bedtime,without effect
same,arms and legs thrashing in the night,[4]; [5],stopped thrashing
same,bowels,[4]; [5],regularized almost immediately
same,delay in sleep onset (I-button),"[4]; 150 mg, FIG. 8C",1 h
same,delay in sleep onset (I-button),"[4]; 150 mg, FIG. 8D",0.5 h
same,Sleep efficiency,[4]; On treatment (Pre-treatment 74),82%
same,Fragments awake during night,[4]; On treatment (Pre-treatment 90),56 min
same,Delay in falling asleep,[4]; On treatment (Pre-treatment 146),60 min
same,"diurnal rhythm (I-button, periodogram, FIG. 12)",[4]; several months into treatment,clearly been restored
same,colonic peristalsis,isolated colons; squalamine into the colonic lumen of the aged mouse,dramatic stimulation of peristalsis
same,dysmotility caused by loperamide,"isolated colons; young mouse colon, squalamine added in presence of continued loperamide perfusion",overridden
